Assay results reported in ChEMBL document CHEMBL1201862, “PubChem BioAssay data set” (2004).
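Test compounds were applied to cells in 96-well plates for 48 hours at 5 doses. GI50: concentration for 50% inhibition of growth.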 The source made the active and inactive calls. Cut-off read from the data, not from the text of the source: active = GI50 up to about 1.1 µM and inactive = higher.

Experiments:
Test in all cases: NCI tumour cell line growth inhibition, 48 h
786-0 = test system: 786-0
ACHN = test system: ACHN
COLO 205 = test system: COLO 205
DU-145 = test system: DU-145
HL-60 = test system: HL-60
HOP-92 = test system: HOP-92
K562 = test system: K562
MDA-MB-435 = test system: MDA-MB-435
NCI-H226 = test system: NCI-H226
NCI-H522 = test system: NCI-H522
OVCAR-4 = test system: OVCAR-4
SR = test system: SR
T47D = test system: T47D
UACC-257 = test system: UACC-257
UACC-62 = test system: UACC-62
UO-31 = test system: UO-31
M14 = test system: M14
SK-OV-3 = test system: SK-OV-3
SNB-19 = test system: SNB-19
MDA-N = test system: MDA-N

Structure (SMILES) | GI50 (786-0) | GI50 (ACHN) | GI50 (COLO 205) | GI50 (DU-145) | GI50 (HL-60) | GI50 (HOP-92) | GI50 (K562) | GI50 (MDA-MB-435) | GI50 (NCI-H226) | GI50 (NCI-H522) | GI50 (OVCAR-4) | GI50 (SR) | GI50 (T47D) | GI50 (UACC-257) | GI50 (UACC-62) | GI50 (UO-31) | GI50 (M14) | GI50 (SK-OV-3) | GI50 (SNB-19) | GI50 (MDA-N)
CS(=O)(=O)Nc1ccc2c(c1)N(S(C)(=O)=O)CC2CCl (stereo not given) | > 100 µM (inactive) | > 100 µM (inactive) | > 100 µM (inactive) | > 100 µM (inactive) | > 100 µM (inactive) | > 100 µM (inactive) | > 100 µM (inactive) | > 100 µM (inactive) | > 100 µM (inactive) | > 100 µM (inactive) | > 100 µM (inactive) | > 100 µM (inactive) | > 100 µM (inactive) | > 100 µM (inactive) | > 100 µM (inactive) | > 100 µM (inactive) |  |  |  | 
C[C@@H](CCO)OC1OC(COC(=O)C(C)(C)C)C(OC(=O)C(C)(C)C)C(OC(=O)C(C)(C)C)C1OC(=O)C(C)(C)C (stereo not given in full) | 39.5 µM (inactive) | 34.2 µM (inactive) | > 100 µM (inactive) | > 100 µM (inactive) | 5.89 µM (inactive) | 13.2 µM (inactive) | 89.7 µM (inactive) | 34.5 µM (inactive) | 20.9 µM (inactive) | 11.7 µM (inactive) | 27 µM (inactive) | 84.7 µM (inactive) | > 100 µM (inactive) | 25.5 µM (inactive) | 48 µM (inactive) |  | 56.5 µM (inactive) | 58.7 µM (inactive) | 12.6 µM (inactive) | 
COc1cc2c(cc1C)NC(=O)/C2=C/c1cccnc1 | 16 µM (inactive) | 11.9 µM (inactive) | 15.6 µM (inactive) | 12.3 µM (inactive) | 4.04 µM (inactive) | 15.3 µM (inactive) | 5.31 µM (inactive) | 12.9 µM (inactive) |  | 13 µM (inactive) | 26.1 µM (inactive) |  | 2.84 µM (inactive) |  |  |  | 14 µM (inactive) | 7.03 µM (inactive) | 11.7 µM (inactive) | 
CC(C)CC(N)C(=O)O (stereo not given) | > 100 µM (inactive) | > 100 µM (inactive) | > 100 µM (inactive) | > 100 µM (inactive) | > 100 µM (inactive) | > 100 µM (inactive) | > 100 µM (inactive) | > 100 µM (inactive) | > 100 µM (inactive) | > 100 µM (inactive) | > 100 µM (inactive) |  | > 100 µM (inactive) | > 100 µM (inactive) | > 100 µM (inactive) | > 100 µM (inactive) | > 100 µM (inactive) | > 100 µM (inactive) | > 100 µM (inactive) | > 100 µM (inactive)
COC(=O)C(CCSc1ccccc1)C(=O)OC | > 100 µM (inactive) | > 100 µM (inactive) | > 100 µM (inactive) |  | 79.3 µM (inactive) | > 100 µM (inactive) |  | > 100 µM (inactive) | > 100 µM (inactive) | 93.8 µM (inactive) | > 100 µM (inactive) | > 100 µM (inactive) | > 100 µM (inactive) | > 100 µM (inactive) | > 100 µM (inactive) | > 100 µM (inactive) | > 100 µM (inactive) | > 100 µM (inactive) |  | > 100 µM (inactive)
COc1ccc(/C=C2\CCC(C)C3=C(c4ccc(OC)c(OC)c4)C(C#N)=C(N)OC32)cc1OC (stereo not given) | 3.35 µM (inactive) | 3.66 µM (inactive) | 2.76 µM (inactive) | 5.5 µM (inactive) | 2.63 µM (inactive) |  | 3.78 µM (inactive) | 2.7 µM (inactive) | 2.39 µM (inactive) |  |  |  | 2.17 µM (inactive) | 4.18 µM (inactive) | 2.86 µM (inactive) | 2.4 µM (inactive) | 3.17 µM (inactive) | 3.42 µM (inactive) | 7.94 µM (inactive) | 3.45 µM (inactive)
C(=N\N=C1NCCCCN1)/c1ccc2ccccc2c1 | 23.1 µM (inactive) | 45.4 µM (inactive) | 15.9 µM (inactive) | 67.3 µM (inactive) | 23.3 µM (inactive) | 14.4 µM (inactive) | 20.9 µM (inactive) | 17.2 µM (inactive) | 24.7 µM (inactive) | 26.7 µM (inactive) | 43.1 µM (inactive) |  | 18.4 µM (inactive) | 21.9 µM (inactive) | 31 µM (inactive) | 36.8 µM (inactive) | 14.5 µM (inactive) | 27.2 µM (inactive) | 61.5 µM (inactive) | 
O=C(O)c1nc2ccc(C(F)(F)F)cc2nc1Nc1ccc(Cl)c(Cl)c1 | 10.5 µM (inactive) | 7.67 µM (inactive) | 11.6 µM (inactive) | 9.68 µM (inactive) | 5.62 µM (inactive) |  | 3.66 µM (inactive) | 5.74 µM (inactive) | 10.6 µM (inactive) | 2.95 µM (inactive) | 6.98 µM (inactive) | 4.15 µM (inactive) |  | 29.2 µM (inactive) | 2.3 µM (inactive) | 4.48 µM (inactive) |  |  | 2.16 µM (inactive) | 6.73 µM (inactive)
CC1(C)CC(=O)C2=C(C1)OC1(CC2c2ccc(Cl)cc2)CC(c2ccc(Cl)cc2)C2=C(CC(C)(C)CC2=O)O1 (stereo not given) | 15.7 µM (inactive) | 18.5 µM (inactive) | 16 µM (inactive) | 19.6 µM (inactive) | 3.58 µM (inactive) | 3.52 µM (inactive) | 8.18 µM (inactive) | 8.53 µM (inactive) | 22.4 µM (inactive) | 11.3 µM (inactive) | 6.78 µM (inactive) | 4.83 µM (inactive) | > 10 µM (inactive) | 17 µM (inactive) | 23.6 µM (inactive) | 13.6 µM (inactive) | 23.1 µM (inactive) | 12.1 µM (inactive) | 18.8 µM (inactive) | 
COc1ccccc1Cn1[nH]c(=O)c2cc([N+](=O)[O-])ccc21 | 42 µM (inactive) | 75 µM (inactive) | > 100 µM (inactive) | > 100 µM (inactive) | 86.5 µM (inactive) | 24.7 µM (inactive) | 51.6 µM (inactive) | 43.9 µM (inactive) | > 100 µM (inactive) | > 100 µM (inactive) | > 100 µM (inactive) | > 100 µM (inactive) |  | > 100 µM (inactive) | 76 µM (inactive) | > 100 µM (inactive) | > 100 µM (inactive) |  | 61.2 µM (inactive) | 47.8 µM (inactive)
CNC(=O)CCC(NC(C)=O)C(=O)NC(Cc1ccc(NC(=O)CCCCC(C)=O)cc1)C(=O)NC(CCC(=O)NC)C(=O)NC (stereo not given) | > 100 µM (inactive) | > 100 µM (inactive) | > 100 µM (inactive) | > 100 µM (inactive) | > 100 µM (inactive) | > 100 µM (inactive) | > 100 µM (inactive) | > 100 µM (inactive) | > 100 µM (inactive) | > 100 µM (inactive) | > 100 µM (inactive) |  | > 100 µM (inactive) |  | > 100 µM (inactive) | > 100 µM (inactive) | > 100 µM (inactive) | > 100 µM (inactive) | > 100 µM (inactive) | > 100 µM (inactive)
Fc1ccc(C2NC(=S)NC3=C2CCOc2c3ccc3ccccc23)cc1 (stereo not given) | 33 µM (inactive) | 58.7 µM (inactive) | 6.67 µM (inactive) | > 100 µM (inactive) | 19 µM (inactive) | > 100 µM (inactive) | 3.39 µM (inactive) | 8.53 µM (inactive) |  | 35 µM (inactive) | 24.7 µM (inactive) |  | 2.7 µM (inactive) | 53.8 µM (inactive) |  | 26.7 µM (inactive) | 27.7 µM (inactive) | 82.4 µM (inactive) | 55.1 µM (inactive) | 
c1ccc2c(c1)ccc1nc(-c3ccc4c(c3)OCO4)c3c(c12)CCCC3 | 26.1 µM (inactive) | 20.8 µM (inactive) | 20.3 µM (inactive) |  |  |  | 16.3 µM (inactive) | 27.5 µM (inactive) | 73.1 µM (inactive) |  | 13.6 µM (inactive) |  | 11.3 µM (inactive) | 30.1 µM (inactive) | 18.8 µM (inactive) | 20.9 µM (inactive) | 28.7 µM (inactive) | 43.5 µM (inactive) | 77.8 µM (inactive) | 37.9 µM (inactive)
Cc1cccc2[nH]c3c(c(O)cc4[nH]c5cccc(C)c5c(=O)c43)c(=O)c12 | 2.99 µM (inactive) | 5.83 µM (inactive) | 3.84 µM (inactive) | 5.98 µM (inactive) | 3.33 µM (inactive) |  | 4.02 µM (inactive) | 4.89 µM (inactive) | 5.16 µM (inactive) | > 10 µM (inactive) | 4.33 µM (inactive) |  | 8.83 µM (inactive) | 4.55 µM (inactive) | > 10 µM (inactive) |  | 4.47 µM (inactive) | > 10 µM (inactive) | > 10 µM (inactive) | > 10 µM (inactive)
CCCCCCc1cc2cc(C(=O)Nc3cccc(C(F)(F)F)c3)c(=N)oc2cc1O | 1.37 µM (inactive) | 1.56 µM (inactive) | 6.64 µM (inactive) | 1.37 µM (inactive) | 1.44 µM (inactive) | 0.348 µM (active) | 0.543 µM (active) | 2 µM (inactive) | 1.06 µM (active) | 0.351 µM (active) | 2.32 µM (inactive) | 0.361 µM (active) | 0.316 µM (active) | 2.44 µM (inactive) | 1.53 µM (inactive) | 3.14 µM (inactive) | 2.29 µM (inactive) | 2.16 µM (inactive) | 2.39 µM (inactive) | 
COc1ccc2c3c([nH]c2c1)[C@H](C=C(C)C)N1C(=O)[C@@H]2CCCN2C(=O)[C@@H]1C3 [FUMITREMORGIN] | 48 µM (inactive) | 56 µM (inactive) | > 100 µM (inactive) | > 100 µM (inactive) | > 100 µM (inactive) | 38.7 µM (inactive) | > 100 µM (inactive) | > 100 µM (inactive) | > 100 µM (inactive) | > 100 µM (inactive) | > 100 µM (inactive) | > 100 µM (inactive) | > 100 µM (inactive) | > 100 µM (inactive) | 87.5 µM (inactive) | > 100 µM (inactive) | > 100 µM (inactive) | 29.6 µM (inactive) | > 100 µM (inactive) | 
